Several values for one entry are separate records, joined by “and”; a condition that tells them apart may be missing. Equal entries are not always repeated. Structures can show the parent of a compound that is named as a salt.
What was measured:
[1] = molecular target: T1, wild type human RORγt ligand binding domain (RORyt LBD) (Homo sapiens, UniProt P51449); test: RORγt ThermoFluor assay (thermal shift, binding affinity KD)
T1 construct: His-tag (N); TurboTEV protease cleavage site (ENLYFQG) (N); made in house; host or cells: E. coli (pHIS1, modified pET vector)
T1 sequence (P51449 258-518): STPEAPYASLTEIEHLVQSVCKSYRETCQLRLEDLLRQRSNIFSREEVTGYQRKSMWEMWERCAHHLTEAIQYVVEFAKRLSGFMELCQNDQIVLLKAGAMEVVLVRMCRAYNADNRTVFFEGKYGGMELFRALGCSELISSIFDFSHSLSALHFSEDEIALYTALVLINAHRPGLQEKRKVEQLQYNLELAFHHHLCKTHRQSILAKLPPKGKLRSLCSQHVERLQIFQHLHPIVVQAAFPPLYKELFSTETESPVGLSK

[2] = molecular target: T2, wild type human RORγt LBD (Homo sapiens, UniProt P51449); test: RORγt (LBD) Reporter Assay (GAL4-luciferase, HEK293T cells); assay type: cell-based; conditions: for RORγt (LBD) Reporter Assay, % inhibition @ 6 µM: 6 µM compound concentration; for IC50: HEK293T cells, value after the comma with ∼, > or < could not be included in the average; for inhibition at 6 µM: HEK-293T, read-out: RORγt (LBD) Reporter Assay, % inhibition @ 6 µM, 6 µM compound concentration
T2 construct: expressed in transfected cells; host or cells: HEK293T
T2 sequence (P51449 258-518): T1 sequence (P51449 258-518)

Q: With “3-((4-Chloro-6-((4-chlorophenyl)(hydroxy)(1-methyl-1H-imidazol-5-yl)methyl)-2-methoxyquinolin-3-yl)methyl)benzonitrile•TFA [Example 70]” as the molecule, how does the Kd [1] read?
A: 120 nM

Q: What about the “RORγt (LBD) Reporter Assay, % inhibition @ 6 µM” value [2] of the same molecule?
A: 94%

Q: And the IC50 [2]?
A: 430 nM

Q: Which Kd [1] does the source give for `COc1nc2ccc(C(O)(c3ccc(Cl)cc3)c3cncn3C)cc2c(C#N)c1Cc1ccc(C(F)(F)F)cc1` (racemic) [Example 55a, 6-((4-Chlorophenyl)(hydroxy)(1-methyl-1H-imidazol-5-yl)methyl)-2-methoxy-3-(4-(trifluoromethyl)benzyl)quinoline-4-carbonitrile] here?
A: 11 nM

Q: What about the IC50 [2] of the same molecule?
A: 32 nM

Q: And the inhibition at 6 µM [2]?
A: 104%

Q: What does the source list for `COc1nc2ccc(C(O)(c3ccc(C)nc3C)c3cnc(C)n3C)cc2c(Cl)c1Cc1ccc(C(F)(F)F)cc1` (racemic) [Example 57a, (4-Chloro-2-methoxy-3-(4-(trifluoromethyl)benzyl)quinolin-6-yl)(1,2-dimethyl-1H-imidazol-5-yl)(2,6-dimethylpyridin-3-yl)methanol]?
A: Kd [1]: 0.03 nM; IC50 [2]: 22 nM; inhibition at 6 µM [2]: 100%

Q: How did the Kd [1] turn out when `COc1nc2ccc(C(O)(c3cnnn3C)c3cnc(C)n3C)cc2c(Cl)c1Cc1ccc(F)cc1` (racemic) [Example 65a] was run?
A: 0.19 nM

Q: And the IC50 [2]?
A: 9.9 nM

Q: And the inhibition at 6 µM [2]?
A: 74%

Q: `COc1nc2ccc(C(O)(c3cnnn3C)c3cnc(C)n3C)cc2c(C#N)c1Cc1ccc(F)cc1` (racemic) [Example 66a, 6-((1,2-Dimethyl-1H-imidazol-5-yl)(hydroxy)(1-methyl-1H-1,2,3-triazol-5-yl)methyl)-3-(4-fluorobenzyl)-2-methoxyquinoline4-carbonitrile] was tested. Which Kd [1] did it give?
A: 0.59 nM

Q: What about the IC50 [2] of the same molecule?
A: 8.2 nM

Q: What about the inhibition at 6 µM [2] of the same molecule?
A: 90%

Q: `COc1nc2ccc(C(N)(c3ccc(C(F)(F)F)nc3)c3cncn3C)cc2c(Cl)c1Cc1cc2ccccc2s1` (racemic) [Example 71a, (3-(Benzo[b]thiophen-2-ylmethyl)4-chloro-2-methoxyquinolin-6-yl)(1-methyl-1H-imidazol-5-yl)(6-(trifluoromethyl)pyridin-3-yl)methanamine] was tested. Which Kd [1] did it give?
A: 61 nM

Q: What about the IC50 [2] of the same molecule?
A: 210 nM

Q: And the inhibition at 6 µM [2]?
A: 98%

Q: For `CC(=O)N1CCC(C(O)(c2ccccc2)c2ccc3nc(Cl)c(Cc4cncnc4)c(OC(F)F)c3c2)CC1` (racemic) [Example 73a, 1-(4-((2-Chloro-4-(difluoromethoxy)-3-(pyrimidin-5-ylmethyl)quinolin-6-yl)(hydroxy)(phenyl)methyl)piperidin-1-yl)ethanone], which Kd [1] is on record?
A: 590 nM

Q: What about the IC50 [2] of the same molecule?
A: > 6000 nM

Q: And the inhibition at 6 µM [2]?
A: 45%

Q: How did the Kd [1] turn out when `COc1nc2ccc(C(O)(c3cnnn3C)C3CCN(C(C)=O)CC3)cc2c(Cl)c1Cc1ccc(C(F)(F)F)cc1` (racemic) [Example 74a, 1-(4-((4-Chloro-2-methoxy-3-(4-(trifluoromethyl)benzyl)quinolin-6-yl)(hydroxy)(1-methyl-1H-1,2,3-triazol-5-yl)methyl)piperidin-1-yl)ethanone] was run?
A: 3.1 nM

Q: What about the IC50 [2] of the same molecule?
A: ~10 nM

Q: And the inhibition at 6 µM [2]?
A: 98%

Q: Which Kd [1] does the source give for `COc1nc2ccc(C(O)(c3ccc(C)nc3C)C3CN(C(C)=O)C3)cc2c(Cl)c1Cc1ccc(C(F)(F)F)cc1` (racemic) [Example 87a, 1-(3-((4-Chloro-2-methoxy-3-(4-(trifluoromethyl)benzyl)quinolin-6-yl)(2,6-dimethylpyridin-3-yl)(hydroxy)methyl)azetidin-1-yl)ethanone] here?
A: 1.8 nM

Q: And the IC50 [2]?
A: 6.8 nM

Q: And the inhibition at 6 µM [2]?
A: 100%

Q: What does the source list for `COc1nc2ccc(C(O)(c3ccc(C)nc3C)c3cncn3C)cc2c(Cl)c1Cc1ccc(C(F)(F)F)cc1` (racemic) [Example 88a, (4-Chloro-2-methoxy-3-(4-(trifluoromethyl)benzyl)quinolin-6-yl)(2,6-dimethylpyridin-3-yl)(1-methyl-1H-imidazol-5-yl)methanol]?
A: Kd [1]: 0.3 nM; IC50 [2]: 4.2 nM and ~20 nM; inhibition at 6 µM [2]: 98%

Q: What does the source list for `COc1nc2ccc(C(O)(c3cncn3C)c3cnnn3C)cc2c(Cl)c1Cc1ccc(C(F)(F)F)cc1` (racemic) [Example 89a, (4-Chloro-2-methoxy-3-(4-(trifluoromethyl)benzyl)quinolin-6-yl)(1-methyl-1H-1,2,3-triazol-5-yl)(1-methyl-1H-imidazol-5-yl)methanol]?
A: Kd [1]: 0.29 nM; IC50 [2]: 4.8 nM; inhibition at 6 µM [2]: 98%

Q: What does the source list for `COc1nc2ccc(C(O)(c3sc(C)nc3C)c3cnnn3C)cc2cc1Cc1ccc(C(F)(F)F)cc1` (racemic) [Example 92a, (2,4-Dimethylthiazol-5-yl)(2-methoxy-3-(4-(trifluoromethyl)benzyl)quinolin-6-yl)(1-methyl-1H-1,2,3-triazol-5-yl)methanol]?
A: Kd [1]: 92 nM; IC50 [2]: 79 nM; inhibition at 6 µM [2]: 101%

Q: Which Kd [1] does the source give for `COc1c(Cc2ccccc2)c(C(F)(F)F)nc2ccc(C(O)(c3ccccn3)c3cncn3C)cc12` (racemic) [Example 98a, (3-Benzyl-4-methoxy-2-(trifluoromethyl)quinolin-6-yl)(1-methyl-1H-imidazol-5-yl)(pyridin-2-yl)methanol•TFA] here?
A: 590 nM

Q: And the IC50 [2]?
A: 830 nM

Q: And the inhibition at 6 µM [2]?
A: 101%

Q: Which Kd [1] does the source give for `Cn1cncc1C(O)(c1ccc2nc(C(F)(F)F)c(Cc3ccccc3)c(C#N)c2c1)c1ccccn1` (racemic) [Example 99a, 3-Benzyl-6-(hydroxy(1-methyl-1H-imidazol-5-yl)(pyridin-2-yl)methyl)-2-(trifluoromethyl)quinoline-4-carbonitrile•TFA] here?
A: 20 nM

Q: What about the IC50 [2] of the same molecule?
A: 97 nM

Q: What about the inhibition at 6 µM [2] of the same molecule?
A: 93%

Q: What does the source list for `COc1nc2ccc(C(O)(c3cncn3C)C3CCOCC3)cc2c(Cl)c1Cc1ccc(-n2cccn2)cc1` (single isomer, unassigned) [Example 1b, (3-(4-(1H-Pyrazol-1-yl)benzyl)-4-chloro-2-methoxyquinolin-6-yl)(1-methyl-1H-imidazol-5-yl)(tetrahydro-2H-pyran-4-yl)methanol]?
A: Kd [1]: 43 nM; IC50 [2]: 100 nM; inhibition at 6 µM [2]: 99%

Q: What does the source list for `COc1nc2ccc(C(O)(c3cncn3C)C3CCOCC3)cc2c(Cl)c1Cc1ccc(-n2cccn2)cc1` (single isomer, unassigned) [Example 1c, (3-(4-(1H-Pyrazol-1-yl)benzyl)-4-chloro-2-methoxyquinolin-6-yl)(1-methyl-1H-imidazol-5-yl)(tetrahydro-2H-pyran-4-yl)methanol]?
A: Kd [1]: 1.5 nM; RORγt (LBD) Reporter Assay, % inhibition @ 6 µM ([2]; 6 µM): 98%; IC50 [2]: 22 nM

Q: For `CCc1nc2ccc(C(O)(c3ccccc3)C3CCN(C(C)=O)CC3)cc2c(Cl)c1Cc1ccc(-n2cccn2)cc1` (stereo not drawn) [Example 35, 1-(4-((3-(4-(1H-Pyrazol-1-yl)benzyl)4-chloro-2-ethylquinolin-6-yl)(hydroxy)(phenyl)methyl)piperidin-1-yl)ethanone], which Kd [1] is on record?
A: 3 nM

Q: With `COc1nc2ccc(C(O)(c3ccc(C)nc3C)c3cnc(C)n3C)cc2c(Cl)c1Cc1ccc(C(F)(F)F)nc1` (stereo not drawn) [Example 42a, (4-Chloro-2-methoxy-3-((6-(trifluoromethyl)pyridin-3-yl)methyl)quinolin-6-yl)(1,2-dimethyl-1H-imidazol-5-yl)(2,6-dimethylpyridin-3-yl)methanol] as the molecule, how does the Kd [1] read?
A: 0.38 nM

Q: Which Kd [1] does the source give for `COc1nc2ccc(C(O)(c3cnc(C)n3C)c3cnc(C)n3C)cc2c(Cl)c1Cc1ccc(C(F)(F)F)nc1` [Example 45, (4-Chloro-2-methoxy-3-((6-(trifluoromethyl)pyridin-3-yl)methyl)quinolin-6-yl)bis(1,2-dimethyl-1H-imidazol-5-yl)methanol] here?
A: 0.21 nM

Q: For `COc1nc2ccc(C(O)(c3cnc(C)n3C)c3cnc(C)n3C)cc2c(Cl)c1Cc1ccc(F)cc1` [Example 67, (4-Chloro-3-(4-fluorobenzyl)-2-methoxyquinolin-6-yl)bis(1,2-dimethyl-1H-imidazol-5-yl)methanol], which Kd [1] is on record?
A: 0.1 nM

Q: Which Kd [1] does the source give for `COc1nc2ccc(C(O)(c3cnc(C)n3C)c3cnc(C)n3C)cc2c(Cl)c1Cc1ccc(OC(F)(F)F)cc1` [Example 76, (4-chloro-2-methoxy-3-(4-(trifluoromethoxy)benzyl)quinolin-6-yl)bis(1,2-dimethyl-1H-imidazol-5-yl)methanol] here?
A: 0.03 nM

Q: Which Kd [1] does the source give for `COc1nc2ccc(C(O)(c3cnnn3C)C3CN(C(N)=O)C3)cc2c(Cl)c1Cc1ccc(C(F)(F)F)cc1` (stereo not drawn) [Example 91, 3-((4-Chloro-2-methoxy-3-(4-(trifluoromethyl)benzyl)quinolin-6-yl)(hydroxy)(1-methyl-1H-1,2,3-triazol-5-yl)methyl)azetidine-1-carboxamide] here?
A: 0.2 nM

Q: `COc1nc2ccc(C(O)(c3c(C)noc3C)c3cnnn3C)cc2c(Cl)c1Cc1ccc(C(F)(F)F)cc1` (stereo not drawn) [Example 93, (4-Chloro-2-methoxy-3-(4-(trifluoromethyl)benzyl)quinolin-6-yl)(3,5-dimethylisoxazol-4-yl)(1-methyl-1H-1,2,3-triazol-5-yl)methanol] was tested. Which Kd [1] did it give?
A: 0.6 nM

Q: How did the Kd [1] turn out when `COc1nc2ccc(C(O)(c3c(C)noc3C)c3cnnn3C)cc2c(C#N)c1Cc1ccc(C(F)(F)F)cc1` (stereo not drawn) [Example 94, 6-((3,5-Dimethylisoxazol-4-yl)(hydroxy)(1-methyl-1H-1,2,3-triazol-5-yl)methyl)-2-methoxy-3-(4-(trifluoromethyl)benzyl)quinoline-4-carbonitrile] was run?
A: 0.48 nM

Q: With `COCCN(C)c1nc2ccc(C(O)(c3ccc(C(F)(F)F)nc3)c3cncn3C)cc2c(Cl)c1Cc1ccc(-n2cccn2)cc1` (stereo not drawn) [Example 128, {4-Chloro-2-[(2-methoxyethyl)(methyl)amino]-3-[4-(1H-pyrazol-1-yl)benzyl]quinolin-6-yl}(1-methyl-1H-imidazol-5-yl)[6-(trifluoromethyl)pyridin-3-yl]methanol] as the molecule, how does the Kd [1] read?
A: 97 nM

Source: EP3057951B1, “METHYLENE LINKED QUINOLINYL MODULATORS OF ROR-GAMMA-T” (Janssen Pharmaceutica NV, priority 2013, dated 2015)
